# Legend:
# [1] = test system: WALKER-CARCINOMA (carcinosarcoma); assay: anti-carcinogenic activity in rats implanted with Walker carcinoma; format: in vivo, white rats; settings: for ALL, % of control / ALL (Average length of life) / % cured: rats; for ALL (Average length of life): injected daily for 5 days; for % cured: cured rats lived over two months after implantation
# Method: The anti-carcinogenic activity of betulinol biacetate and betulonic aldehyde was assessed using 117-120 gram white rats implanted with worker's carcinoma and 21-23 gram white mice with artificially transplanted Ehrlich's tumor.
# Solutions of 2.5% betulonic aldehyde and 0.05% betulinol biacetate were prepared in 10% polyvinylpyrrolidone containing Tween-80 (a sorbitan mono-9-octadecenate poly(oxy-1,2-ethanediyl)) stabilizer.
# Mice were injected with 0.1-0.2 ml of either betulinol biacetate or betulonic aldehyde solution daily, starting 24 hours after transplantation, for the following 5 days. Rats were injected with 1.2 ml of either betulinol biacetate or betulonic aldehyde solution daily, starting 24 hours after implantation, for the following 5 days. Animals in control groups received the same amount of a 10% solution of polyvinylpyrrolidone.
# The anti-tumor effect of betulinol acetate or betulonic aldehyde was determined by measuring the volume of the tumor on the 10th day after implantation. An average length of life (“ALL”) was calculated for each of the deceased animals. In addition, the percentage of cured rats was also determined.
# The volume of the tumor was measured and calculated as a multiple of the quadrate of its similar diameter by the greater diameter. Thus, the effect was expressed as a ratio (“E/C”), in percent, of the tumor volume in rats treated with betulinol acetate or betulonic aldehyde (“E”) and the tumor volume in control rats (“C”). The effect of betulinol acetate or betulonic aldehyde on ALL was evaluated the same way.
# [2] = BBA solubility in organic solvents; format: physicochemical; settings: for BBA Mass Content, %, at 20° C.: mass % in organic solvent
# Method: Studies of betulinol biacetate solubility were conducted in order to determine the appropriate solvent for product crystallization and purification.
# [3] = Group 1, Dose/day 204.6 (mg/kg body weight)
# [4] = Group 2, Dose/day 106.9 (mg/kg body weight)
compound,measurement,setting,value
"C=C(C)[C@@H]1CC[C@]2(COC(C)=O)CC[C@]3(C)[C@H](CC[C@@H]4[C@@]5(C)CC[C@H](OC(C)=O)C(C)(C)[C@@H]5CC[C@]43C)[C@@H]12 [Betulinol diacetate, Betulinol Biacetate]","ALL, % of control",[1]; [3],131.3%
same,ALL (Average length of life),[1]; [3],28.5 days
same,% cured,[1]; [3],50.0%
same,"ALL, % of control",[1]; [4],200.5%
same,ALL (Average length of life),[1]; [4],43.5 days
same,% cured,[1]; [4],67.0%
same,"rate of the tumor growth inhibited, of the control group","[1]; tumor volume on the 10th day, versus control group",55.2%
same,"BBA Mass Content, %, at 20° C.",[2]; Benzene,100%
same,"BBA Mass Content, %, at T (° C.)","[2]; Butanol, T 95 ° C.",100%
same,"BBA Mass Content, %, at 20° C.",[2]; Chloroform,100%
same,"BBA Mass Content, %, at 20° C.",[2]; Dimethylsulfoxide,30%
same,"BBA Mass Content, %, at T (° C.)","[2]; Dimethylsulfoxide, T 189 ° C.",100%
same,"BBA Mass Content, %, at T (° C.)","[2]; Dioxane, T 101 ° C.",100%
same,"BBA Mass Content, %, at 20° C.",[2]; Hexane,15%
same,"BBA Mass Content, %, at 20° C.",[2]; Toluene,100%

# — US6890533B2, “Betulinol derivatives” (Cornell Research Foundation, Inc., priority 1997, dated 2005)
